Laboratory results published in US6569622B1, “Nucleic acids encoding a protein conferring an inducible resistance to glycopeptide, particularly in gram-positive bacteria” (Institut Pasteur, priority 1992, dated 2003).
≈ marks a conversion by molar mass, not a printed value.

Experiments:
Assay in all cases: MIC determination on agar (method of Steers et al.)
E. rhusiopathiae = format: cell-based, Erysipelothrix rhusiopathiae
Experimental: (§1) A brain-heart medium and agar (Difco Laboratories, Detroit, Mich.) were used. Sensitivity tests were performed on Mueller-Hinton agar (Diagnostics Pasteur, Marne LaCoquette, France). All of the incubations were performed at 37° C.
(§2) The disk diffusion test with disks containing 30 μg of vancomycin or 30 μg of teicoplanin (Diagnostics Pasteur) was used for the initial screening. The method of Steers et al. with 10^4 CFU per spot was used to determine the MIC of the antibiotics (Steers E. et al., Antibiot. Chemother. (Basel) 1959, 9: 307-11)

E. faecalis = format: cell-based, Enterococcus faecalis
Experimental: as §1, §2

[1] = system: isolates of E. faecium and E. faecalis resistant to high concentrations of vancomycin; format: cell-based; conditions: 15 isolates resistant to high concentrations of vancomycin, including V583-2 and UMH-1
From the text: Bacterial strains: 39 isolates of E. faecium (28 strains) and E. faecalis (11 strains) resistant to low and high concentrations of vancomycin and sensitive to teicoplanin were studied (Table II). Among these strains 24 isolates including E. faecalis V583 (Sahm D. et al., Antimicrob. Agents Chemother. 1989, 33: 1588-91) and E. faecium D366 (Gutmnann L. et al., Antimicrob. Agents Chemother. 1992, 36: 77-80) were resistant to low concentrations of vancomycin on the basis of a disk sensitivity test. […] The control strains were well-characterized strains of entercocci belonging to the phenotypes A and C and hybridizing with the probes VanA and VanC, respectively. In particular there are 6 clinical isolates of E. faecium highly resistant to vancomycin and to teicoplanin, including BM4147. The strains of E. gallinarum including […] belonging to class C were also used as controls. Strains of E. casseliflavus are also used as controls, including the strain ATCC 25788, which are isolates intrinsically resistant to low levels of vancomycin and sensitive to teicoplanin (Leclercq R. et al., Antimicrob. Agents Chemother. 1992, 36: 2005-8).
A brain-heart medium and agar (Difco Laboratories, Detroit, Mich.) were used. Sensitivity tests were performed on Mueller-Hinton agar (Diagnostics Pasteur, Marne LaCoquette, France). All of the incubations were performed at 37° C. […]

Leuconostoc. sp. = format: cell-based, Leuconostoc mesenteroides
Experimental: as §1, §2

E. gallinarum = format: cell-based
Experimental: as §1, §2

Pediococcus spp. = format: cell-based
Experimental: as §1, §2

Lactobacillus spp. = format: cell-based
Experimental: as §1, §2

[2] = system: Enterococcus spp. (susceptible); format: cell-based
Experimental: as §1, §2

E. casseliflavus = format: cell-based
Experimental: as §1, §2

E. faecium = format: cell-based, Enterococcus faecium
Experimental: as §1, §2

[3] = E. gallinarum(3), phenotypic class C, genotypic class C

Compound `CN[C@H](CC(C)C)C(=O)N[C@H]1C(=O)N[C@@H](CC(N)=O)C(=O)N[C@H]2C(=O)N[C@H]3C(=O)N[C@H](C(=O)N[C@H](C(=O)O)c4cc(O)cc(O)c4-c4cc3ccc4O)[C@H](O)c3ccc(c(Cl)c3)Oc3cc2cc(c3O[C@@H]2O[C@H](CO)[C@@H](O)[C@H](O)[C@H]2O[C@H]2C[C@](C)(N)[C@H](O)[C@H](C)O2)Oc2ccc(cc2Cl)[C@H]1O` [Vancomycin, vancomycin] has an MIC (E. rhusiopathiae; Erysipelothrix rhusiopathiae) of over 1 µg/mL, an MIC (E. faecalis; Enterococcus faecalis, ATCC29212, E. faecalis strain ATCC 29212) of 2 µg/mL (≈ 1.38 µM) and an MIC (E. faecalis; Enterococcus faecalis, E. faecalis strain UMH-1) of 1020 µg/mL (≈ 707 µM). It also gave an MIC (E. faecalis; Enterococcus faecalis, E. faecalis strain V583) of 64 µg/mL (≈ 44.2 µM), an MIC (E. faecalis; Enterococcus faecalis, E. faecalis strain V583-2) of 1020 µg/mL (≈ 707 µM) and an MIC (E. faecalis; Enterococcus faecalis, E. faecalis strain V583-C1) of 2 µg/mL (≈ 1.38 µM). The MIC (E. faecalis; Enterococcus faecalis, E. faecalis(11), phenotypic class B, genotypic class B) was 4 to 1020 µg/mL (≈ 2.76 to 707 µM), the MIC [1] was at least 128 µg/mL and the MIC (Leuconostoc. sp.; Leuconostoc mesenteroides) was over 1 µg/mL. The MIC (E. gallinarum; [3]) was 8 µg/mL (≈ 5.52 µM), the MIC (E. gallinarum; Enterococcus gallinarum, GALLINARUM) was 8 µg/mL (≈ 5.52 µM) and the MIC (Pediococcus spp.; Pediococcus) was over 1 µg/mL. It also gave an MIC (Lactobacillus spp.; Lactobacillus) of over 1 µg/mL, an MIC ([2]; Enterococcus) of 0.5 to 2 µg/mL (≈ 0.345 to 1.38 µM) and an MIC (E. casseliflavus; Enterococcus casseliflavus, E. casseliflavus (Table I, strain not given)) of 8 µg/mL (≈ 5.52 µM). The MIC (E. casseliflavus; Enterococcus casseliflavus, E. casseliflavus(2), phenotypic class C, genotype NC) was 4 to 8 µg/mL (≈ 2.76 to 5.52 µM), the MIC (E. faecium; Enterococcus faecium, ATCC19434, E. faecium strain ATCC 19434) was 1 µg/mL (≈ 0.69 µM) and the MIC (E. faecium; Enterococcus faecium, E. faecium strain BM4147) was 1020 µg/mL (≈ 707 µM). For the same compound, the MIC (E. faecium; Enterococcus faecium, E. faecium strain D366) was 32 µg/mL (≈ 22.1 µM), the MIC (E. faecium; Enterococcus faecium, E. faecium strain MT10R) was 2 µg/mL (≈ 1.38 µM) and the MIC (E. faecium; Enterococcus faecium, E. faecium(28), phenotypic class B, genotypic class B) was 4 to 256 µg/mL (≈ 2.76 to 177 µM).

teicoplanin gave an MIC (E. rhusiopathiae; E. rhusiopathiae(1)) of over 1.000 µg/mL, an MIC (E. faecalis; E. faecalis strain ATCC 29212) of 0.5 µg/mL and an MIC (E. faecalis; E. faecalis strain UMH-1) of 1.0 µg/mL. For the same compound, the MIC (E. faecalis; E. faecalis strain V583) was 0.5 µg/mL, the MIC (E. faecalis; E. faecalis strain V583-2) was 1.0 µg/mL and the MIC (E. faecalis; E. faecalis strain V583-C1) was 0.5 µg/mL. For the same compound, the MIC (E. faecalis; E. faecalis(11), phenotypic class B, genotypic class B) was 0.5 to 1 µg/mL, the MIC (Leuconostoc. sp.; Leuconostoc. sp.(1)) was over 1.000 µg/mL and the MIC (E. gallinarum; E. gallinarum strain BM4174) was 1 µg/mL. For the same compound, the MIC (E. gallinarum; [3]) was 1 µg/mL, the MIC (Pediococcus spp.; Pediococcus spp.(2)) was over 1.000 µg/mL and the MIC (Lactobacillus spp.; Lactobacillus spp.(8)) was over 1.000 µg/mL. It also gave an MIC ([2]; Enterococcus spp.(10), phenotypic class Susceptible) of 0.25 µg/mL, an MIC (E. casseliflavus; E. casseliflavus (Table I, strain not given)) of 1 µg/mL and an MIC (E. casseliflavus; E. casseliflavus(2), phenotypic class C, genotype NC) of 0.5 to 1 µg/mL. The MIC (E. faecium; E. faecium strain ATCC 19434) was 1 µg/mL, the MIC (E. faecium; E. faecium strain BM4147) was 512 µg/mL and the MIC (E. faecium; E. faecium strain D366) was 0.5 µg/mL. For the same compound, the MIC (E. faecium; E. faecium strain MT10R) was 0.25 µg/mL and the MIC (E. faecium; E. faecium(28), phenotypic class B, genotypic class B) was 0.5 to 1 µg/mL.
